Source: US20230003721A1, “MITOTHERAPEUTICS FOR THE TREATMENT OF BRAIN DISORDERS” (The University of Florida Research Foundation, Inc., priority 2019, published 2023)
Counter-ions that a name gives are not always drawn. Like-named read-outs stand apart in the source and are kept apart here.

Assays:
[1] = system: primary forebrain neurons; test: cells; conditions: 24 h; for EC50: Mus musculus, Neuron; for Dendritic Mt CA / Neurite Area: rescreen, 12.5 μM, vs DMSO wells
[2] = system: NRF2-mediated antioxidant response; conditions: WO2012149478A3; cited from earlier work
[3] = system: primary cortical neurons; conditions: Ding et al. 2011; cited from earlier work
[4] = system: isolated forebrain mitochondria; test: ATP production of isolated mitochondria (luciferase-based kinetic assay); format: biochemical, mouse
Protocol: Isolation of mitochondria. For the ATP synthesis experiments of FIG. 6, forebrains from P0 pups were dissected as described above. 2×10^7 cells were harvested for high-purity mitochondrial isolation using the Qiagen QProteome kit. The mitochondrial pellet was resuspended in 500 μl mitochondria storage buffer (provided by kit) and kept on ice until further use.
ATP production of isolated forebrain mitochondria of P0 pups was measured by ATP Determination Kit (Molecular Probes). […] The reactions were initiated by the addition of 1 mM ADP (deprived of ATP contamination by adding 3 U/ml hexokinase to 10 mM of ADP in 50 mM Tris-HCl, 20 mM MgCl2 and 22 mM glucose, incubating the solution at 37° C. for 1 hr and heat inactivating the hexokinase at 100° C. for 3 min). Luminescence was recorded every 15-30 sec for 1 hr at 580±40 nm.

[5] = system: hippocampal neurons; test: Spontaneous excitatory postsynaptic currents (sEPSC), whole-cell patch-clamp; format: cell-based, mouse; conditions: 12.5 μM, 24 hr, DIV8
Protocol: Spontaneous excitatory postsynaptic currents in hippocampal neurons. […] The cultures were treated with selected compounds or 0.1% DMSO for 24 hr before measuring spontaneous excitatory postsynaptic currents (sEPSCs). Whole-cell patch-clamp recordings were performed using an Axon Multiclamp 700b amplifier, 1440A Digidata digitizer and data acquisition using pClamp software (Axon Instruments, Foster City, Calif.). The neurons were first recorded in a current clamp mode to monitor cell health. Only neurons with a resting membrane potential of less than −40 mV were used for further analysis. sEPSC recordings were made at 50 kHz and subsequently filtered at 5 kHz. The membrane potential was held at −70 mV during the recording. […] Once a neuron was patched, its seal was monitored, and if the transient resistance was less than […], the recording was not used for analysis. All experiments were performed at room temperature. The frequency and amplitude of sEPSCs were analyzed using the template match search (pClamp) and measured as a percentage of baseline level, calculated from the average of a 5 min baseline recording. The values of the amplitude and frequency of EPSCs for each recording was reported as an average from a 5 min recording period.

[6] = system: primary neurons; test: Oxygen consumption rate (OCR) of permeabilized primary neurons; format: cell-based, mouse
Protocol: The oxygen consumption rate (OCR) of permeabilized neurons and isolated brain mitochondria (from 9-month old mice) was measured by the XF96 Extracellular Flux analyzer (Seahorse Bioscience). […] Prior to the start of the OCR measurement, all but 30 μl of Neurobasal A/B27 culture medium was removed from each well. Cells were washed twice with pre-warmed MAS-BSA assay medium (4 mg/ml fatty-acid free BSA, pH=7.2) and incubated in 180 μl at 37° C. for 5 min. Following the cartridge calibration, cells were loaded into the XF96 Extracellular Flux analyzer and further equilibrated for 10 min with two cycles of 3 min mixing and 2 min resting prior to the first measurement of basal respiration. OCR were measured at 37° C. under basal conditions followed by the sequential injection of pre-warmed 10× mitochondrial substrates/ADP (20 μl), oligomycin (22 μl), FCCP (24 μl), and rotenone/antimycin A (26 μl). The final concentrations of injected compounds were as follows: 10 mM mitochondrial substrates (pyruvate/malate or succinate), 1 mM ADP, 1.5 μM oligomycin, 3 μM FCCP, 2 μM rotenone/antimycin A. Saponin (25 μg/ml) was co-injected with substrate/ADP to permeabilize the cells and stimulate ADP-dependent respiration. Two baseline measurements were obtained prior to any injection and 2 response measurements were collected after each injection except for after FCCP addition which consisted of 1 measurement (9 total measurements in each assay). Each measurement cycle consisted of 2 min mixing, 2 min waiting, and 3 min data acquisition. This protocol allowed for sequential assessment of basal cell respiration, maximal mitochondrial respiratory capacity (State 3 with substrate/ADP), proton leak (State 4o with oligomycin), uncoupled maximal respiration (State 3U with FCCP) and non-mitochondrial respiration with the Complex I/Complex III inhibitors, rotenone/antimycin A. Cells were washed twice with MAS buffer to remove residue BSA contained in the assay medium, lysed in 50 μl lysis buffer (25 mM HEPES, 1 mM EGTA, 1 mM EDTA, 0.1% SDS, 1% NP-40, 1× protease and phosphatase inhibitor, pH 7.0 adjusted with NaOH) and total protein was determined by BCA assay. Oxygen consumption was normalized to total protein content as pmol O2/min/ug total protein.
Oxygen consumption rate (OCR) or extracellular acidification rate (ECAR) measurements from permeabilized neurons and isolated brain mitochondria were performed using the XF96 Extracellular Flux analyzer (Seahorse Bioscience). For assays using cultured neurons, primary neurons were dissociated from the forebrains of P0 pups, seeded at 1.9×10^4/well (PDL-coated XF96 plate), cultured to DIV13 and incubated with selected compounds or DMSO (0.1%) for 24 h. Prior to the start of the OCR measurement, all but 30 μl of Neurobasal A/B27 culture medium was removed from each well. Cells were washed twice with pre-warmed MAS-BSA assay medium (70 mM sucrose, 220 mM mannitol, 10 mM KH2PO4, 5 mM MgCl2, 2 mM HEPES and 1 mM EGTA, 4 mg/ml fatty-acid free BSA, pH=7.2 adjusted using KOH) and incubated in 180 ul MAS-BSA medium at 37° C. in a CO2-free incubator for 5 m. […] OCR and ECAR were measured at 37° C. under basal conditions followed by the sequential injection of pre-warmed 10× mitochondrial substrates/ADP (20 μl), oligomycin (22 μl), FCCP (24 μl), and rotenone/antimycin A (26 μl).

[7] = system: primary neurons; conditions: 75 μM peroxide, 12.5 μM compound, 48 h
[8] = read-out: Elongation (Dend Mt length) EC50
[9] = read-out: Health (Ax Mt Circularity) EC50
[10] = read-out: Mt Content (Dend Mt CA) EC50
[11] = read-out: Sprouting (Neurite Area) EC50

SMILES: COC(=O)[C@@H]1[C@H]2C[C@H]3c4[nH]c5ccccc5c4CCN3C[C@@H]2CC[C@@H]1O [YOHIMBINE HYDROCHLORIDE]
- EC50 [1, 8]: 0.2 µM
- EC50 [1, 9]: 1.3 µM
- EC50 [1, 10]: 0.01 µM
- EC50 [1, 11]: 1.7 µM
- Dendritic Mt CA [1]: 3.44 robust Z-scores
- Neurite Area [1]: 2.50 robust Z-scores
- neuroprotection by inducing the NRF2-mediated antioxidant response [2]: neuroprotective

SMILES: O=c1c(-c2ccc(O)cc2)coc2cc(O)cc(O)c12 [GENISTEIN]
- Dendritic Mt CA [1]: 2.93 robust Z-scores
- Neurite Area [1]: 0.34 robust Z-scores
- ΔΨm in primary cortical neurons treated with Aβ peptide [3]: increase ΔΨm

SMILES: CCCCOc1ccc(C(=O)CCN2CCCCC2)cc1 [DYCLONINE HYDROCHLORIDE]
- EC50 [1, 8]: 1.5 µM
- EC50 [1, 9]: 0.2 µM
- EC50 [1, 10]: 0.2 µM
- EC50 [1, 11]: > 25 µM
- Dendritic Mt CA [1]: 3.89 robust Z-scores
- Neurite Area [1]: 0.33 robust Z-scores
- ATP production kinetics, amplitude of single exponential fit ([4]; 12 μM, starting 20 min after addition, DMSO 22498±358): 28882±673
- ATP production of isolated mitochondria (direct effect) ([4]; 12.5 μM, within the 45-min measurement period, vs DMSO): significantly increased
- sEPSC frequency and amplitude [5]: increasing both frequency and amplitude
- State 3 and 3u respiration stimulated by either Complex I or Complex II substrates ([6]; 10 μM, 24 h, cultured neurons): significant increase
- OCR ([6]; oxygen consumption rate, significant change): increased
- protection from peroxide (PO) induced mitochondrial fragmentation [7]: fully protected
